Measured values as given in EP4745137A1 (Gluetacs Therapeutics (Shanghai) Co., Ltd., priority 2023, dated 2025).

Key:
Assay type in all cases: cell-based
Conditions in all cases: 24 hours of compound treatment, 50 nM and 500 nM tested (concentration behind the class not stated)
[1] = molecular target: T1, IKZF2 (Homo sapiens, UniProt Q96SW2+Q9UKS7); assay: Western-blot assay of substrate protein degradation in hPBMCs, IKZF2
T1 construct: endogenous in cells; host or cells: hPBMCs (Milecell Biotechnologies)

[2] = molecular target: T2, IKZF1 (Homo sapiens, UniProt Q13422+Q96SW2); assay: Western-blot assay of substrate protein degradation in hPBMCs, IKZF1
T2 construct: endogenous in cells; host or cells: hPBMCs (Milecell Biotechnologies)

[3] = molecular target: T3, WEE1 (Homo sapiens, UniProt P30291+Q96SW2); assay: Western-blot assay of substrate protein degradation in hPBMCs, WEE1
T3 construct: endogenous in cells; host or cells: hPBMCs (Milecell Biotechnologies)

[4] = molecular target: T4, CK1α (Homo sapiens, UniProt P48729+Q96SW2); assay: Western-blot assay of substrate protein degradation in hPBMCs, CK1α
T4 construct: endogenous in cells; host or cells: hPBMCs (Milecell Biotechnologies)

[5] = molecular target: T5, IKZF3 (Homo sapiens, UniProt Q96SW2+Q9UKT9); assay: Western-blot assay of substrate protein degradation in hPBMCs, IKZF3
T5 construct: endogenous in cells; host or cells: hPBMCs (Milecell Biotechnologies)

[6] = molecular target: T6, GSPT1 (Homo sapiens, UniProt P15170+Q96SW2); assay: Western-blot assay of substrate protein degradation in hPBMCs, GSPT1
T6 construct: endogenous in cells; host or cells: hPBMCs (Milecell Biotechnologies)

T2 sequence (Q13422 whole entry): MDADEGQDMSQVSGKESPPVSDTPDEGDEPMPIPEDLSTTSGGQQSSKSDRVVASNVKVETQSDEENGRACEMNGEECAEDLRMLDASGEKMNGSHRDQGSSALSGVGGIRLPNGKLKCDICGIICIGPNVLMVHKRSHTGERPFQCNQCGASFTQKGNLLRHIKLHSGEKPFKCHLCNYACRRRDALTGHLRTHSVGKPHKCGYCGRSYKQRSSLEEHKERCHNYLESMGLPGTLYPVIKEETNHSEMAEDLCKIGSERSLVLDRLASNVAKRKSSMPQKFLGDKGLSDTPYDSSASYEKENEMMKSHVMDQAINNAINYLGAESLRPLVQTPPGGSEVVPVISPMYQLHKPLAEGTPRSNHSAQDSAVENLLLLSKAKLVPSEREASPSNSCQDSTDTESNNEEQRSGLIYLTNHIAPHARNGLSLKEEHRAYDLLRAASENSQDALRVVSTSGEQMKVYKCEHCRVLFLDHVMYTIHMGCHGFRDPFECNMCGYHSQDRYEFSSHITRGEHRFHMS
T2 sequence (Q96SW2 whole entry): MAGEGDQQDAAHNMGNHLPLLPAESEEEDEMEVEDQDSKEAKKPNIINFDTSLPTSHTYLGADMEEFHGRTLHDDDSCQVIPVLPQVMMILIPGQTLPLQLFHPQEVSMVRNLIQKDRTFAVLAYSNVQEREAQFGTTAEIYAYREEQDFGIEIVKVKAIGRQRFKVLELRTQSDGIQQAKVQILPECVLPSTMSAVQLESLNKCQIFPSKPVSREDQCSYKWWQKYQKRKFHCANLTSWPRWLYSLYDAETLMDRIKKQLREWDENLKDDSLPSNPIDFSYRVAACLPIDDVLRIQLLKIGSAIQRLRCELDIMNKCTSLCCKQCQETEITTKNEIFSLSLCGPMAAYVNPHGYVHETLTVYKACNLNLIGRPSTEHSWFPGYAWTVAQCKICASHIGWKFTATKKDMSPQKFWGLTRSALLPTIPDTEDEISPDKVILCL
T2 sequence (Q16531 whole entry partner): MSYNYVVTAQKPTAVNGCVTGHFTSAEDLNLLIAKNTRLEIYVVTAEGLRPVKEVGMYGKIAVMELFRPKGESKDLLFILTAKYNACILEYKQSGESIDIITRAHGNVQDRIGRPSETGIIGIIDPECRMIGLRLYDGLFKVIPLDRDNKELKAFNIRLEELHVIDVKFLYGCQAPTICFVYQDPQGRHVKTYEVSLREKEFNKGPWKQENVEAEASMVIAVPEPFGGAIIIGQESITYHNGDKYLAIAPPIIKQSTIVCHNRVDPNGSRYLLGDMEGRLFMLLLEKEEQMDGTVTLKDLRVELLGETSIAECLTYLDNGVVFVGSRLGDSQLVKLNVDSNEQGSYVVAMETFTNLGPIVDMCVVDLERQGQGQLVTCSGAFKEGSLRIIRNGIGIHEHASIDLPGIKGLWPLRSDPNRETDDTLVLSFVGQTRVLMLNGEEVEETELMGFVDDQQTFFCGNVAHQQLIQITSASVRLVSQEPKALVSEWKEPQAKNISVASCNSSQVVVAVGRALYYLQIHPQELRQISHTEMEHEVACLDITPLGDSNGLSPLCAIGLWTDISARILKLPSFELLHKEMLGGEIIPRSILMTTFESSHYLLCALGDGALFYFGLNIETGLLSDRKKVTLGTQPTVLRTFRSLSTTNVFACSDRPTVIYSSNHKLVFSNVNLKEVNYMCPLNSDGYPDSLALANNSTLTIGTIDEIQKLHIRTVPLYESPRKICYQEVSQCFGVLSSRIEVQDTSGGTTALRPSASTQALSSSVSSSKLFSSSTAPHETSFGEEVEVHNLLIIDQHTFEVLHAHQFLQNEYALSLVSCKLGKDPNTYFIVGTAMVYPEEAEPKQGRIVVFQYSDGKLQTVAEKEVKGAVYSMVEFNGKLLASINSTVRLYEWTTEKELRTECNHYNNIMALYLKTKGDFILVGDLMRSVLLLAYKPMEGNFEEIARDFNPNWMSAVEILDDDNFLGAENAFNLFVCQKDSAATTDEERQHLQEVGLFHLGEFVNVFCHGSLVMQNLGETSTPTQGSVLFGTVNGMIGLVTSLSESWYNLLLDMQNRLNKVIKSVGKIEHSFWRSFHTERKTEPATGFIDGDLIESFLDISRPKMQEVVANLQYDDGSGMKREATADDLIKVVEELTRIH
T4 sequence (P48729 whole entry): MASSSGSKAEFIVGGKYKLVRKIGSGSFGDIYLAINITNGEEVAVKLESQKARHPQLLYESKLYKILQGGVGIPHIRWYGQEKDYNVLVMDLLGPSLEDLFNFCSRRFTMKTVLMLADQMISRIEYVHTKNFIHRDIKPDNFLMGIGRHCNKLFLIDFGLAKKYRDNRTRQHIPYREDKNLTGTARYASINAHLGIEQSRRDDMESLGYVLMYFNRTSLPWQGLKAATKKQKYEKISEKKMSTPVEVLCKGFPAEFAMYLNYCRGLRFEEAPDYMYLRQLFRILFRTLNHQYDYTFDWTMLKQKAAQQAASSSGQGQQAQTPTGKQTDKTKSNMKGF
T4 sequence (Q96SW2 whole entry): as the sequence (Q96SW2 whole entry) above
T4 sequence (Q16531 whole entry partner): as the sequence (Q16531 whole entry partner) above
T3 sequence (P30291 whole entry): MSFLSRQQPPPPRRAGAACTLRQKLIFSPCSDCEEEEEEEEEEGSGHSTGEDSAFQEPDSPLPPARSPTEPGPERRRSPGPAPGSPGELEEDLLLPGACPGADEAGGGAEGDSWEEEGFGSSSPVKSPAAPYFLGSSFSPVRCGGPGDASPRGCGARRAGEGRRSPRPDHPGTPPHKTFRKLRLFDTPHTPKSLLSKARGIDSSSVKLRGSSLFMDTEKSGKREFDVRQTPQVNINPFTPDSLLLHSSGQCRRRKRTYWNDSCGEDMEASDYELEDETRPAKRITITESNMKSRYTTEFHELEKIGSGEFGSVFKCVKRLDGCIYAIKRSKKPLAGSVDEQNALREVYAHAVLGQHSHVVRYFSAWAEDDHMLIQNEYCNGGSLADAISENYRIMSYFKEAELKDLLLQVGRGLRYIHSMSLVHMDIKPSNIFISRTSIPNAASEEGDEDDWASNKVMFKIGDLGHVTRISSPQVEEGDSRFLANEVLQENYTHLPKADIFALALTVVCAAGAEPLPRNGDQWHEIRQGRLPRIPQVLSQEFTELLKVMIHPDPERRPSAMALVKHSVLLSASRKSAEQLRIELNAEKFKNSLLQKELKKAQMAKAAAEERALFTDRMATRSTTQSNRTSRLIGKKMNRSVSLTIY
T3 sequence (Q96SW2 whole entry): as the sequence (Q96SW2 whole entry) above
T3 sequence (Q16531 whole entry partner): as the sequence (Q16531 whole entry partner) above
T5 sequence (Q9UKT9 whole entry): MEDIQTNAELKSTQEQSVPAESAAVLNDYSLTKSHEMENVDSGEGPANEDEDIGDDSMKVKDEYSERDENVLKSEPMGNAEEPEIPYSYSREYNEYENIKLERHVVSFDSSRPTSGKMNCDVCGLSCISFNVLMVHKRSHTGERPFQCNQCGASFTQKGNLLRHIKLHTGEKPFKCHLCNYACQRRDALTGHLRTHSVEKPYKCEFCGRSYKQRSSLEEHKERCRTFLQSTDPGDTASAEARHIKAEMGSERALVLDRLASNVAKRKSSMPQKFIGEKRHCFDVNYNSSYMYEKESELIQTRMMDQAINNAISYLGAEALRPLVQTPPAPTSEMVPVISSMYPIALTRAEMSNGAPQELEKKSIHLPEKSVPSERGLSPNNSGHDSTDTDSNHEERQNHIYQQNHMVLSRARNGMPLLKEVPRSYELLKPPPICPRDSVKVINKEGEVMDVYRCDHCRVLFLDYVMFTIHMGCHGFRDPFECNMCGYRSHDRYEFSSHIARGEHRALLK
T5 sequence (Q96SW2 whole entry): as the sequence (Q96SW2 whole entry) above
T5 sequence (Q16531 whole entry partner): as the sequence (Q16531 whole entry partner) above
T1 sequence (Q9UKS7 whole entry): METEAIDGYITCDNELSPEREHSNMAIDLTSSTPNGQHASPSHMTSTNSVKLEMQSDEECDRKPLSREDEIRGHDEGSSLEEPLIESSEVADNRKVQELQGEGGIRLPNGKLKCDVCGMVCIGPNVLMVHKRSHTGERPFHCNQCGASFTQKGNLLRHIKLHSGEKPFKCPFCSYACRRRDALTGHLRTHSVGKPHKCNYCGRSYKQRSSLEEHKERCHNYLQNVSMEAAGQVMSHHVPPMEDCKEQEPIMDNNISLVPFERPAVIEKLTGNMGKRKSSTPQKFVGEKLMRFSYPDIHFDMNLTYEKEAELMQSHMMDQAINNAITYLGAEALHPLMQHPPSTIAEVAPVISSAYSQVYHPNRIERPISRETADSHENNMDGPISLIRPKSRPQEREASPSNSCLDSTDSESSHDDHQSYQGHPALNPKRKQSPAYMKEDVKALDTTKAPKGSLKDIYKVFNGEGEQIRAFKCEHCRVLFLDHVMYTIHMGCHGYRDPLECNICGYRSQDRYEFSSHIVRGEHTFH
T1 sequence (Q96SW2 whole entry): as the sequence (Q96SW2 whole entry) above
T1 sequence (Q16531 whole entry partner): as the sequence (Q16531 whole entry partner) above

SMILES | IKZF2 substrate protein remaining % [1] | IKZF 1 substrate protein remaining % [2] | Weel substrate protein remaining % [3] | CK1a substrate protein remaining % [4] | IKZF3 substrate protein remaining % [5] | GSPT1 substrate protein remaining % [6]
Cc1cccc(N2CCN(Cc3ccc4c(c3)C(=O)N(C3CCC(=O)NC3=O)C4=O)CC2)c1 (stereo not drawn) [GT-06276, 2-(2,6-dioxopiperidin-3-yl)-5-((4-(m-tolyl)piperazin-1-yl)methyl)isoindoline-1,3-dione] | A (0% ≤ substrate protein remaining % ≤ 80%) | A (0% ≤ substrate protein remaining % ≤ 80%) | B (80%< substrate protein remaining %≤ 100%) | B (80%< substrate protein remaining %≤ 100%) | B (80%< substrate protein remaining %≤ 100%) | A (0% ≤ substrate protein remaining % ≤ 80%)
Cc1ccc(N2CCN(Cc3ccc4c(c3)C(=O)N(C3CCC(=O)NC3=O)C4=O)CC2)cc1 (stereo not drawn) [GT-06277, 2-(2,6-dioxopiperidin-3-yl)-5-((4-(p-tolyl)piperazin-1-yl)methyl)isoindoline-1,3-dione] | B (80%< substrate protein remaining %≤ 100%) | B (80%< substrate protein remaining %≤ 100%) | B (80%< substrate protein remaining %≤ 100%) | B (80%< substrate protein remaining %≤ 100%) | B (80%< substrate protein remaining %≤ 100%) | A (0% ≤ substrate protein remaining % ≤ 80%)
Cc1cc(C2=CCN(Cc3ccc4c(c3)C(=O)N(C3CCC(=O)NC3=O)C4=O)CC2)cs1 (stereo not drawn) [GT-06279, 2-(2,6-dioxopiperidin-3-yl)-5-((4-(5-methylthiophen-3-yl)-3,6-dihydropyridin-1(2H)-yl)methyl)isoindoline-1,3-dione] | A (0% ≤ substrate protein remaining % ≤ 80%) | A (0% ≤ substrate protein remaining % ≤ 80%) | A (0% ≤ substrate protein remaining % ≤ 80%) | A (0% ≤ substrate protein remaining % ≤ 80%) | A (0% ≤ substrate protein remaining % ≤ 80%) | A (0% ≤ substrate protein remaining % ≤ 80%)
Cc1ccsc1C1CCN(Cc2ccc3c(c2)C(=O)N(C2CCC(=O)NC2=O)C3=O)CC1 (stereo not drawn) [GT-06280, 2-(2,6-dioxopiperidin-3-yl)-5-((4-(3-methylthiophen-2-yl)piperidin-1-yl)methyl)isoindoline-1,3-dione] | B (80%< substrate protein remaining %≤ 100%) | B (80%< substrate protein remaining %≤ 100%) | B (80%< substrate protein remaining %≤ 100%) | B (80%< substrate protein remaining %≤ 100%) | B (80%< substrate protein remaining %≤ 100%) | A (0% ≤ substrate protein remaining % ≤ 80%)
O=C1CCC(N2C(=O)c3ccc(CN4CCC(c5ccsc5)CC4)cc3C2=O)C(=O)N1 (stereo not drawn) [GT-06281, 2-(2,6-dioxopiperidin-3-yl)-5-((4-(thiophen-3-yl)piperidin-1-yl)methyl)isoindoline-1,3-dione] | B (80%< substrate protein remaining %≤ 100%) | B (80%< substrate protein remaining %≤ 100%) | B (80%< substrate protein remaining %≤ 100%) | B (80%< substrate protein remaining %≤ 100%) | B (80%< substrate protein remaining %≤ 100%) | A (0% ≤ substrate protein remaining % ≤ 80%)
Cc1cscc1C1CCN(Cc2ccc3c(c2)C(=O)N(C2CCC(=O)NC2=O)C3=O)CC1 (stereo not drawn) [GT-06282, 2-(2,6-dioxopiperidin-3-yl)-5-((4-(4-methylthiophen-3-yl)piperidin-1-yl)methyl)isoindoline-1,3-dione] | B (80%< substrate protein remaining %≤ 100%) | B (80%< substrate protein remaining %≤ 100%) | B (80%< substrate protein remaining %≤ 100%) | B (80%< substrate protein remaining %≤ 100%) | B (80%< substrate protein remaining %≤ 100%) | A (0% ≤ substrate protein remaining % ≤ 80%)
Cc1cc(C2CCN(Cc3ccc4c(c3)C(=O)N(C3CCC(=O)NC3=O)C4=O)CC2)cs1 (stereo not drawn) [GT-06283, 2-(2,6-dioxopiperidin-3-yl)-5-((4-(5-methylthiophen-3-yl)piperidin-1-yl)methyl)isoindoline-1,3-dione] | B (80%< substrate protein remaining %≤ 100%) | B (80%< substrate protein remaining %≤ 100%) | B (80%< substrate protein remaining %≤ 100%) | B (80%< substrate protein remaining %≤ 100%) | B (80%< substrate protein remaining %≤ 100%) | A (0% ≤ substrate protein remaining % ≤ 80%)
O=C1CCC(N2C(=O)c3ccc(CN4CCC(c5ccco5)CC4)cc3C2=O)C(=O)N1 (stereo not drawn) [GT-06284, 2-(2,6-dioxopiperidin-3-yl)-5-((4-(furan-2-yl)piperidin-1-yl)methyl)isoindoline-1,3-dione] | B (80%< substrate protein remaining %≤ 100%) | B (80%< substrate protein remaining %≤ 100%) | B (80%< substrate protein remaining %≤ 100%) | B (80%< substrate protein remaining %≤ 100%) | B (80%< substrate protein remaining %≤ 100%) | A (0% ≤ substrate protein remaining % ≤ 80%)
O=C1CCC(N2C(=O)c3ccc(CN4CCC(c5ccoc5)CC4)cc3C2=O)C(=O)N1 (stereo not drawn) [GT-06285, 2-(2,6-dioxopiperidin-3-yl)-5-((4-(furan-3-yl)piperidin-1-yl)methyl)isoindoline-1,3-dione] | B (80%< substrate protein remaining %≤ 100%) | B (80%< substrate protein remaining %≤ 100%) | B (80%< substrate protein remaining %≤ 100%) | B (80%< substrate protein remaining %≤ 100%) | B (80%< substrate protein remaining %≤ 100%) | A (0% ≤ substrate protein remaining % ≤ 80%)
O=C1CCC(N2C(=O)c3ccc(CN4CCN(c5ccccc5)CC4)cc3C2=O)C(=O)N1 (stereo not drawn) [GT-06286, 2-(2,6-dioxopiperidin-3-yl)-5-((4-phenylpiperazin-1-yl)methyl)isoindoline-1,3-dione] | B (80%< substrate protein remaining %≤ 100%) | B (80%< substrate protein remaining %≤ 100%) | B (80%< substrate protein remaining %≤ 100%) | B (80%< substrate protein remaining %≤ 100%) | B (80%< substrate protein remaining %≤ 100%) | A (0% ≤ substrate protein remaining % ≤ 80%)
